Reference: US10730874B2 (Shire Human Genetic Therapies, Inc., priority 2018, dated 2020)

Target: human activated kallikrein enzyme (plasma kallikrein) (Homo sapiens (Human), UniProt P03952)
Assay: Inhibition of human activated plasma kallikrein, fluorogenic peptide substrate assay, 500 pM enzyme format
Format: biochemical
Conditions: 500 pM activated kallikrein enzyme, 300 uM Pro-Phe-Arg-7-amido-4-methylcoumarin substrate, 30 min preincubation, 10 min at RT; read-out: Primary Dose Response Assay: Average EC50
Method in brief: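 Buffer 20 mM Tris pH 7.5, EDTA, NaCl, PEG-400, Triton X-100; 300 uM Pro-Phe-Arg-AMC; enzyme–inhibitor preincubation 30 min RT. Format one: 500 pM kallikrein, 10 min RT reaction; format two: 5 pM kallikrein, 18 h RT reaction. Fluorescence read at 460 nm (380 nm excitation).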

Sequence of human activated kallikrein enzyme (plasma kallikrein) (P03952 391-638): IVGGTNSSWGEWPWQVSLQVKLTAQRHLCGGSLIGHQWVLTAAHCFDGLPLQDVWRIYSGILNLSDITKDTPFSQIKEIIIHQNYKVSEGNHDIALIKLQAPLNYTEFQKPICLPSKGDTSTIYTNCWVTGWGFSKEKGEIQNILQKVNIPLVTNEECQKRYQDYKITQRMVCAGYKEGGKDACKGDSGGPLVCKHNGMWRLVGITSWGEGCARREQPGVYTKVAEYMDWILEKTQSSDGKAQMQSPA
Sequence of human activated kallikrein enzyme (plasma kallikrein) (P03952 20-390 partner): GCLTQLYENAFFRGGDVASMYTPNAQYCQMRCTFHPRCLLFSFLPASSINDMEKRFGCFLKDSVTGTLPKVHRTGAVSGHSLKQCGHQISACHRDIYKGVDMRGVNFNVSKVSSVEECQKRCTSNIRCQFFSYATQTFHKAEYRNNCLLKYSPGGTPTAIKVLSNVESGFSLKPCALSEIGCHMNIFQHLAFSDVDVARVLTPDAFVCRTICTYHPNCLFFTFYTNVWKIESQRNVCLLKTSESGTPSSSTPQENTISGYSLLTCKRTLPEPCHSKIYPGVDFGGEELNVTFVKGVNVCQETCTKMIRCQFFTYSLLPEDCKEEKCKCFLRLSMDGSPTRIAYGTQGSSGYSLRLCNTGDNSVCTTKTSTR

## O=C(NCc1ncn2cc(F)c(Cl)cc12)c1cn(Cc2cn3cc(C4CC4)ccc3n2)nn1 [Example I-277, N-((7-chloro-6-fluoroimidazo[1,5-a]pyridin-1-yl)methyl)-1-((6-cyclopropylimidazo[1,2-a]pyridin-2-yl)methyl)-1H-1,2,3-triazole-4-carboxamide]
  EC50: 10 to 100 nM

## CC(NC(=O)c1cn(C(C)c2cn3cc(C4CC4)ccc3n2)nn1)c1ncn2ccc(Cl)c(F)c12 (centres unmarked) [Example I-278, N-(1-(7-chloro-8-fluoroimidazo[1,5-a]pyridin-1-yl)ethyl)-1-(1-(6-cyclopropylimidazo[1,2-a]pyridin-2-yl)ethyl)-1H-1,2,3-triazole-4-carboxamide]
  EC50: 100 to 2000 nM

## O=C(NCc1ncn2ccc(Cl)c(F)c12)c1cn(Cc2cn3cc(C4CC4)cc(C(O)C4COC4)c3n2)nn1 (centres unmarked) [Example I-279, N-((7-chloro-8-fluoroimidazo[1,5-a]pyridin-1-yl)methyl)-1-((6-cyclopropyl-8-(hydroxy(oxetan-3-yl)methyl)imidazo[1,2-a]pyridin-2-yl)methyl)-1H-1,2,3-triazole-4-carboxamide]
  EC50: < 1 nM

## CC(NC(=O)c1cn(Cc2cn3cc(C4CC4)cc(C(O)C4COC4)c3n2)nn1)c1ncn2ccc(Cl)c(F)c12 (centres unmarked) [Example I-280, N-(1-(7-chloro-8-fluoroimidazo[1,5-a]pyridin-1-yl)ethyl)-1-((6-cyclopropyl-8-(hydroxy(oxetan-3-yl)methyl)imidazo[1,2-a]pyridin-2-yl)methyl)-1H-1,2,3-triazole-4-carboxamide]
  EC50: 10 to 100 nM

## O=C(NCc1ncn2ccc(Cl)c(F)c12)c1cn(Cc2cn3cc(C4CC4)cc(CS(=O)(=O)NCC(F)(F)F)c3n2)nn1 [Example I-281, N-((7-chloro-8-fluoroimidazo[1,5-a]pyridin-1-yl)methyl)-1-((6-cyclopropyl-8-((N-(2,2,2-trifluoroethyl)sulfamoyl)methyl)imidazo[1,2-a]pyridin-2-yl)methyl)-1H-1,2,3-triazole-4-carboxamide]
  EC50: < 1 nM

## O=C(NCc1ncn2ccc(Cl)c(F)c12)c1cnn(Cc2nc3ccccn3n2)c1 [Example I-282, 1-([1,2,4]triazolo[1,5-a]pyridin-2-ylmethyl)-N-((7-chloro-8-fluoroimidazo[1,5-a]pyridin-1-yl)methyl)-1H-pyrazole-4-carboxamide]
  EC50: 100 to 2000 nM

## O=C(NCc1ncn2ccc(Cl)c(F)c12)c1nnn(Cc2cn3cc(C4CC4)ccc3n2)n1 [Example I-283, N-((7-chloro-8-fluoroimidazo[1,5-a]pyridin-1-yl)methyl)-2-((6-cyclopropylimidazo[1,2-a]pyridin-2-yl)methyl)-2H-tetrazole-5-carboxamide]
  EC50: < 1 nM

## O=C(NCc1ncn2ccc(Cl)c(F)c12)c1cnn(Cc2cn3ccccc3n2)c1 [Example I-284, N-((7-chloro-8-fluoroimidazo[1,5-a]pyridin-1-yl)methyl)-1-(imidazo[1,2-a]pyridin-2-ylmethyl)-1H-pyrazole-4-carboxamide]
  EC50: 10 to 100 nM

## O=C(NCc1ncn2ccc(Cl)c(F)c12)c1cnn(Cc2cn3ncccc3n2)c1 [Example I-285, N-((7-chloro-8-fluoroimidazo[1,5-a]pyridin-1-yl)methyl)-1-(imidazo[1,2-b]pyridazin-2-ylmethyl)-1H-pyrazole-4-carboxamide]
  EC50: 10 to 100 nM

## O=C(NCc1ncn2ccc(Cl)c(F)c12)c1cn(Cc2nc3ccccn3n2)nn1 [Example I-287, 1-([1,2,4]triazolo[1,5-a]pyridin-2-ylmethyl)-N-((7-chloro-8-fluoroimidazo[1,5-a]pyridin-1-yl)methyl)-1H-1,2,3-triazole-4-carboxamide]
  EC50: 100 to 2000 nM

## O=C(NCc1ncn2ccc(Cl)c(F)c12)c1cn(Cc2cn3nc(C4CC4)ccc3n2)cn1 [Example I-288, N-((7-chloro-8-fluoroimidazo[1,5-a]pyridin-1-yl)methyl)-1-((6-cyclopropylimidazo[1,2-b]pyridazin-2-yl)methyl)-1H-imidazole-4-carboxamide]
  EC50: < 1 nM
